Read-outs that look alike come from different tables or passages of the source.
Biological target: T1, G1 APOL1 (Homo sapiens, UniProt O14791, I384M/S342G)
T1 construct: expressed in transfected cells
T1 sequence (O14791 28-398 S342G/I384M): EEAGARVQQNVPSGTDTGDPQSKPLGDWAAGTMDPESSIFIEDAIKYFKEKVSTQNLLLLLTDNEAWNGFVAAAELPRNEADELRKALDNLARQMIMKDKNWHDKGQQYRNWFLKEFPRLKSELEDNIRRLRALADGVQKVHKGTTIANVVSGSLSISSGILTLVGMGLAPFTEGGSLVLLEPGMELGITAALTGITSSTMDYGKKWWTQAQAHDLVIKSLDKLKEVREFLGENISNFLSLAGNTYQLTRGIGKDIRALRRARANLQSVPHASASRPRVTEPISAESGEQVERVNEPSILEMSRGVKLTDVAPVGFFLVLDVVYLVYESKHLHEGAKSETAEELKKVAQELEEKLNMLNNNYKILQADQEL
Test: Acute APOL1 Thallium Assay with inducible stable clones of HEK 293 cells
Format: cell-based
Details: read-out: Thallium Assay (IC50)
Procedure, shortened: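 Tetracycline-inducible HEK293 T-Rex clone G1 DC3.25 expressing G1 APOL1, plated at 26000 cells/well in Opti-MEM with tetracycline induction. APOL1 pore activity read on FLIPR as fluorescence increase from Tl+ influx into cells loaded with a Tl+-sensitive AM-ester dye.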

[1] = HEK 293 T-Rex cells expressing G1 APOL1

SMILES | IC50 [1] | IC50 (Table 24, Compounds 287 to 465)
O=C(CNC(=O)[C@H]1C[C@H](c2c(-c3ccc(F)cc3)[nH]c3c(F)cc(F)cc32)C1)NC1CC1 [Compound 50] | > 1000 nM | –
O=C(NCC1CC(F)(F)C1)[C@H]1C[C@H](c2c(-c3ccc(F)cc3)[nH]c3c(F)cc(F)cc32)C1 [Compound 41] | > 1000 nM | –
C[C@@H](NC(=O)[C@H]1C[C@H](c2c(-c3ccc(F)cc3)[nH]c3c(F)cc(F)cc32)C1)C(=O)N(C)C [Compound 61] | > 1000 nM | –
NC(=O)CNC[C@H]1C[C@@H](c2c(-c3ccc(F)cc3)[nH]c3c(F)cc(F)cc32)C1 [Compound 447] | – | < 250 nM
O=C([C@H]1C[C@H](c2c(-c3ccc(F)cc3)[nH]c3c(F)cc(F)cc32)C1)N1C[C@@H](CO)OCC12CC2 [Compound 57] | > 1000 nM | –
O=C1CC(NC(=O)[C@H]2C[C@H](c3c(-c4ccc(F)cc4)[nH]c4c(F)cc(F)cc43)C2)CN1 (mixture of isomers) [Compound 44] | > 1000 nM | –
CCNC(=O)[C@@H]1CCCN1C(=O)[C@H]1C[C@H](c2c(-c3ccc(F)cc3)[nH]c3c(F)cc(F)cc32)C1 [Compound 64] | > 1000 nM | –
CN(CC1(CO)CC1)C(=O)[C@H]1C[C@H](c2c(-c3ccc(F)cc3)[nH]c3c(F)cc(F)cc32)C1 [Compound 49] | > 1000 nM | –
CN(C)C(=O)CN(C)C(=O)[C@H]1C[C@H](c2c(-c3ccc(F)cc3)[nH]c3c(F)cc(F)cc32)C1 [Compound 62] | 250 to 1000 nM | –
COCC1(CNC(=O)[C@H]2C[C@H](c3c(-c4ccc(F)cc4)[nH]c4c(F)cc(F)cc43)C2)CC1 [Compound 53] | > 1000 nM | –
NC(=O)CNCC1CC(c2c(-c3ccc(F)cc3)[nH]c3c(F)cc(F)cc23)C1 (stereo not drawn) [Compound 433, 2-(((3-(5,7-difluoro-2-(4-fluorophenyl)-1H-indol-3-yl)cyclobutyl)methyl)amino)acetamide] | – | < 250 nM
O=C1NCCC1NC(=O)[C@H]1C[C@H](c2c(-c3ccc(F)cc3)[nH]c3c(F)cc(F)cc32)C1 (stereo partly drawn) [Compound 2] | < 250 nM | –
CC(C)N1CCN(C(=O)[C@H]2C[C@H](c3c(-c4ccc(F)cc4)[nH]c4c(F)cc(F)cc43)C2)CC1=O [Compound 63] | > 1000 nM | –
NC(=O)CNC(=O)[C@H]1C[C@H](c2c(-c3ccc(F)cc3)[nH]c3c(F)cc(F)cc32)C1 [Compound 1, N-(2-amino-2-oxo-ethyl)-3-[5,7-difluoro-2-(4-fluorophenyl)-1H-indol-3-yl]cyclobutanecarboxamide] | < 250 nM | –
CN(CC(N)=O)C(=O)[C@H]1C[C@H](c2c(-c3ccc(F)cc3)[nH]c3c(F)cc(F)cc32)C1 [Compound 51] | 250 to 1000 nM | –
CC(C)(NC(=O)[C@H]1C[C@H](c2c(-c3ccc(F)cc3)[nH]c3c(F)cc(F)cc32)C1)C(=O)N1CCOCC1 [Compound 66] | > 1000 nM | –
O=C(NCC1CCOCC1)[C@H]1C[C@H](c2c(-c3ccc(F)cc3)[nH]c3c(F)cc(F)cc32)C1 [Compound 42] | > 1000 nM | –
NCCCNC(=O)[C@H]1C[C@H](c2c(-c3ccc(F)cc3)[nH]c3c(F)cc(F)cc32)C1 [Compound 4] | 250 to 1000 nM | –
C[C@H](NC(=O)[C@H]1C[C@H](c2c(-c3ccc(F)cc3)[nH]c3c(F)cc(F)cc32)C1)C(=O)N(C)C [Compound 65] | 250 to 1000 nM | –
O=C(NC1(CO)CC1)[C@H]1C[C@H](c2c(-c3ccc(F)cc3)[nH]c3c(F)cc(F)cc32)C1 [Compound 47] | 250 to 1000 nM | –

More lines, main results first:

IC50 [1] | SMILES | IC50 (Table 24, Compounds 287 to 465)
> 1000 nM | Cc1cc(CNC(=O)[C@H]2C[C@H](c3c(-c4ccc(F)cc4)[nH]c4c(F)cc(F)cc43)C2)nn1C [Compound 73] | –
> 1000 nM | NC(=O)C1CCCCN1C(=O)[C@H]1C[C@H](c2c(-c3ccc(F)cc3)[nH]c3c(F)cc(F)cc32)C1 (stereo partly drawn) [Compound 92] | –
> 1000 nM | O=C(NCC1(O)CCCC1)[C@H]1C[C@H](c2c(-c3ccc(F)cc3)[nH]c3c(F)cc(F)cc32)C1 [Compound 69] | –
> 1000 nM | CN(CC(C)(C)O)C(=O)[C@H]1C[C@H](c2c(-c3ccc(F)cc3)[nH]c3c(F)cc(F)cc32)C1 [Compound 93] | –
> 1000 nM | COCc1cc(CNC(=O)[C@H]2C[C@H](c3c(-c4ccc(F)cc4)[nH]c4c(F)cc(F)cc43)C2)n[nH]1 [Compound 72] | –
> 1000 nM | CN1CC(CNC(=O)[C@H]2C[C@H](c3c(-c4ccc(F)cc4)[nH]c4c(F)cc(F)cc43)C2)CC1=O (stereo partly drawn) [Compound 70] | –
250 to 1000 nM | CC(NC(=O)[C@H]1C[C@H](c2c(-c3ccc(F)cc3)[nH]c3c(F)cc(F)cc32)C1)C(N)=O (mixture of isomers) [Compound 68] | –
250 to 1000 nM | O=C(OC1CN(C(=O)[C@H]2C[C@H](c3c(-c4ccc(F)cc4)[nH]c4c(F)cc(F)cc43)C2)C1)C1CCOCC1 [Compound 85] | –
> 1000 nM | CC1C[C@H](NC(=O)[C@H]2C[C@H](c3c(-c4ccc(F)cc4)[nH]c4c(F)cc(F)cc43)C2)C(=O)N1 (mixture of isomers) [Compound 84] | –
< 250 nM | CN(CCO)C(=O)[C@H]1C[C@H](c2c(-c3ccc(F)cc3)[nH]c3c(F)cc(F)cc32)C1 [Compound 79] | –
> 1000 nM | O=C(NCC1(CO)COC1)[C@H]1C[C@H](c2c(-c3ccc(F)cc3)[nH]c3c(F)cc(F)cc32)C1 [Compound 83] | –
> 1000 nM | CC(O)CN(C)C(=O)[C@H]1C[C@H](c2c(-c3ccc(F)cc3)[nH]c3c(F)cc(F)cc32)C1 (stereo partly drawn) [Compound 90] | –
> 1000 nM | O=C([C@H]1C[C@H](c2c(-c3ccc(F)cc3)[nH]c3c(F)cc(F)cc32)C1)N1CCC(O)(CO)CC1 [Compound 87] | –

Source: US12116343B2, “Inhibitors of APOL1 and methods of using same” (Vertex Pharmaceuticals Incorporated, priority 2020, dated 2024)
